Patent US20050020588A1, “Cysteine protease inhibitors” (priority 1999, published 2005)
Read-outs that look alike come from different tables or passages of the source.

What was measured:
Mammalian Cathepsin S = Mammalian Cathepsin S (Homo sapiens, UniProt P25774); assay: Ki competitive inhibition, mammalian cathepsin S; type: biochemical
Description: (§1) Cathepsin S (Mammalian, murine and rat)
(§2) Assays were performed in 100 mM sodium phosphate, 100 mM NaCl, pH 6.5 (buffer) in white 384 well plates (Coming Costar). Eight inhibitors were assayed per plate.
(§3) Inhibitor dilutions were performed on a 96 well V-bottomed polypropylene plate (Corning Costar). 100 μl of buffer was placed in wells 2-5 and 7-12 of rows A, B, C and D. Sufficient of each inhibitor at 10 mM in DMSO was placed into wells A1-D1 and A6-D6 to give the desired final concentration when the volume in the well was made up to 200 μl with buffer. Column 1 was made up to 200 μl with buffer, mixed by aspirating and dispensing 100 μl in the well, and 100 μl transferred to column 2. The pipette tips were changed and the mixing and transferral repeated to column 5. This process was repeated for columns 6-10.
(§4) Substrate dilutions were performed on a 96 deep well polypropylene plate (Beckman Coulter). 280 μl of buffer was placed in wells B-H of columns 1 and 2.70 μl of 10 mM boc-Val-Leu-Lys-AMC was placed in A1 and A2. 2×250 μl of buffer was added to wells A1 and A2, mixed by aspirating and dispensing 280 μl in the well, and 280 μl transferred to row B. The pipette tips were changed and the process repeated down the plate to row H.
(§5) Column 1 of the substrate dilution plate was distributed at 10 μl per well into alternate rows beginning at row A. Column 2 was distributed to alternate rows beginning at row B. Row A of the inhibitor dilution plate was distributed at 10 μl per well to alternate rows and columns starting at A1. Row B was distributed to alternate rows and columns starting at A2. Row C was distributed to alternate rows and columns starting at B1 and row D was distributed to alternate rows and columns starting at B2. The assay was started by the addition of 30 μl per well of 20 nM cathepsin S in buffer containing 10 mM 2-mercaptoethanol.
(§6) Data were saved as text files and imported into Excel. The initial rates were determined by linear regression and then fitted to the competitive inhibition equation using SigmaPlot.

Murine Cathepsin S = Murine Cathepsin S (Mus musculus, UniProt O70370); assay: Ki competitive inhibition, murine cathepsin S; type: biochemical
Description: as §1, §2, §3, §4, §5, §6

Rat Cathepsin S = Rat Cathepsin S (Rattus norvegicus, UniProt Q02765); assay: Ki competitive inhibition, rat cathepsin S; type: biochemical
Chain of Rat Cathepsin S (Q02765 113-330): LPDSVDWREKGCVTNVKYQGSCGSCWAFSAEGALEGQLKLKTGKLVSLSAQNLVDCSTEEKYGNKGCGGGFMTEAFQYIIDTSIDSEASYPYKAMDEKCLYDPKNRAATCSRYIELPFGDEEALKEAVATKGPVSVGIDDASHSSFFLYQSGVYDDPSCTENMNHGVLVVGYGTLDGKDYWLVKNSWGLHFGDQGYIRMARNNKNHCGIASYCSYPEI
Description: as §1, §2, §3, §4, §5, §6

Mammalian Cathepsin L = Mammalian Cathepsin L (Homo sapiens, UniProt P07711); assay: Ki competitive inhibition, cathepsin L; type: biochemical
Chain of Mammalian Cathepsin L (P07711 114-333): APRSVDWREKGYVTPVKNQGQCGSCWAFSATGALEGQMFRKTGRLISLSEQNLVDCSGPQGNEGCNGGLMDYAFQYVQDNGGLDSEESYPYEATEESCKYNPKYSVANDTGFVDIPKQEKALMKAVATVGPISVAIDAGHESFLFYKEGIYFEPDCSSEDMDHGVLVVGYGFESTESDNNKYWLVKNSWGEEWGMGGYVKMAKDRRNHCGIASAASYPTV
Description: as §6
(§7) Assays were performed essentially as above. For cathepsin L, the buffer used was 100 mM sodium acetate, 1 mM EDTA, pH 5.5 and the substrate was D-Val-Leu-Lys-AMC with a highest concentration of 100 μM. For cathepsin K, the buffer used was 100 mM MES/Tris, 1 mM EDTA, pH 7.0 and the substrate was D-Ala-Leu-Lys-AMC with a highest concentration of 250 μM.

Mammalian Cathepsin K = target: T1, Mammalian Cathepsin K (Homo sapiens, UniProt P43235); assay: Ki competitive inhibition, cathepsin K; type: biochemical
T1 sequence (P43235 115-329): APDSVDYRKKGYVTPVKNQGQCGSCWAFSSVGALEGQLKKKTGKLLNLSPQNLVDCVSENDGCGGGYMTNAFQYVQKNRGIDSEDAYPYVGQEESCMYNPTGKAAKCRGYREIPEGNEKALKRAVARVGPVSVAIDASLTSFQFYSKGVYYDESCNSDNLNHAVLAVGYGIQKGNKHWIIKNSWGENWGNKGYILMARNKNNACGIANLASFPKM
Description: as §7
Convenient assays for cathepsin K arere carried out using human recombinant enzyme. Standard assay conditions for the determination of kinetic constants used a fluorogenic peptide substrate, typically H-D-Ala-Leu-Lys-AMC, and were determined in either 100 mM Mes/Tris, pH 7.0 containing 1 mM EDTA and 10 mM 2-mercaptoethanol or 100 mM Na acetate, pH 5.5 containing 5 mM EDTA and 20 mM cysteine. The enzyme concentration used was 5 nM. The stock substrate solution was prepared at 10 mM in DMSO. Screens were carried out at a fixed substrate concentration of 60 μM and detailed kinetic studies with doubling dilutions of substrate from 250 μM. The total DMSO concentration in the assay was kept below 3%. All assays were conducted at ambient temperature. Product fluorescence (excitation at 390 nm, emission at 460 nm) was monitored with a Labsystems Fluoroskan Ascent fluorescent plate reader. Product progress curves were generated over 15 minutes following generation of AMC product.
Potential inhibitors are screened using the above assay with variable concentrations of test compound. Reactions were initiated by addition of enzyme to buffered solutions of substrate and inhibitor. Ki values were calculated according to equation 1 [formula] where ν0 is the velocity of the reaction, V is the maximal velocity, S is the concentration of substrate with Michaelis constant of KM, and I is the concentration of inhibitor. Determination of Falcipain 2 Proteolytic Catalytic Activity

[1] = Oral bioavailability in mice; settings: mouse, in vivo, dosed i.v. and orally at 10 mg/kg to mice, read-out: oral bioavailability % (F)
[2] = Table 1, first line of each CAP-P2 block, read-out: Ki competitive inhibition measurements vs Mammalian Cathepsin S
[3] = Table 2, Human, read-out: Ki (μM) Human, Mammalian Cathepsin S
[4] = Table 1, second line of each CAP-P2 block, read-out: Ki competitive inhibition measurements vs Mammalian Cathepsin L
[5] = Table 2, Mouse, read-out: Ki (μM) Mouse, Murine Cathepsin S
[6] = Table 2, Rat, read-out: Ki (μM) Rat, Rat Cathepsin S
[7] = Table 1, third line of each CAP-P2 block, read-out: Ki competitive inhibition measurements vs Mammalian Cathepsin K

Chain of Mammalian Cathepsin S (P25774 115-331): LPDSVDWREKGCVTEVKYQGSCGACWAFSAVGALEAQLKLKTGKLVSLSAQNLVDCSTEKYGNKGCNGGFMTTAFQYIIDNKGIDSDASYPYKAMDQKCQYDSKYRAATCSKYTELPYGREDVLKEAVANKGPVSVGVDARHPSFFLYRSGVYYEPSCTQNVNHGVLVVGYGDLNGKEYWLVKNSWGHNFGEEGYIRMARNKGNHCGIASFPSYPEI

A Ki (Mammalian Cathepsin S; [2]) of 0.015 µM, a Ki (Mammalian Cathepsin S; [3]) of 0.015 µM and a Ki (Mammalian Cathepsin S; read-out: Ki mammalian cath S) of 0.015 µM were found for `CC[C@@H]1OCC(=O)[C@H]1NC(=O)[C@H](CC(C)(C)C(C)C)NC(=O)c1ccoc1` [CAP8-Hybrid3/drawing 68, Furan-3-carboxylic acid[3,3,4-trimethyl-1S-(2S-ethyl-4-oxo-tetrahydrofuran-3-ylcarbamoyl)pentyl]amide] in this work. For the same molecule, the Ki (Murine Cathepsin S; read-out: Ki murine cath S) was 0.149 µM, the Ki (Rat Cathepsin S; read-out: Ki rat cath S) was 0.271 µM and the Ki (Mammalian Cathepsin L; [4]) was > 100000 nM. For the same molecule, the Ki (Mammalian Cathepsin L; read-out: Ki cathepsin L) was > 100000 nM and the Ki (Mammalian Cathepsin K; read-out: Ki cathepsin K) was 5500 nM.

A Ki (Mammalian Cathepsin S; [2]) of 0.1 µM, a Ki (Mammalian Cathepsin S; [3]) of 0.13 µM and a Ki (Murine Cathepsin S; [5]) of 0.1 µM were found for `C[C@@H]1OCC(=O)[C@H]1NC(=O)[C@H](CC(C)(C)C)NC(=O)c1ccoc1` [CAP8-L-tBu-Ala/drawing 71, Furan-3-carboxylic acid[3,3-dimethyl-1S-(2S-methyl-4-oxo-tetrahydrofuran-3S-ylcarbamoyl)butyl]amide] in this work. For the same molecule, the Ki (Rat Cathepsin S; [6]) was 0.211 µM, the Ki (Mammalian Cathepsin L; [4]) was > 100000 nM and the Ki (Mammalian Cathepsin K; [7]) was 7300 nM. The bioavailability [1] was 58%.

A Ki (Mammalian Cathepsin S; [2]) of 0.21 µM, a Ki (Mammalian Cathepsin L; [4]) of 36400 nM and a Ki (Mammalian Cathepsin K; [7]) of 850 nM were found for `CC(C)(C)CC(NC(=O)c1ccoc1)C(=O)NC1COCC1=O` [CAP8-L-tBu-Ala/drawing 72] in this work.

A Ki (Mammalian Cathepsin S; [2]) of 0.8 µM, a Ki (Mammalian Cathepsin L; [4]) of 7900 nM and a Ki (Mammalian Cathepsin K; [7]) of 4800 nM were found for `CC(C)C[C@H](NC(=O)N1CCOCC1)C(=O)N[C@H]1C(=O)CO[C@H]1C` [CAP9-L-Leu/drawing 70] in this work.

A Ki (Mammalian Cathepsin S; [2]) of 0.78 µM, a Ki (Mammalian Cathepsin L; [4]) of 48700 nM and a Ki (Mammalian Cathepsin K; [7]) of 34300 nM were found for `CC(C)CC[C@H](NC(=O)N1CCOCC1)C(=O)N[C@@H]1C(=O)CO[C@@H]1C` [CAP9-L-hLeu/drawing 69] in this work.

In the case of `CC(C)CC[C@H](NC(=O)N1CCOCC1)C(=O)N[C@H]1C(=O)CO[C@H]1C` [CAP9-L-hLeu/drawing 70], the Ki (Mammalian Cathepsin S; [2]) is reported as 0.7 µM, the Ki (Mammalian Cathepsin L; [4]) is reported as > 100000 nM and the Ki (Mammalian Cathepsin K; [7]) is reported as > 100000 nM.

In the case of `CC(C)CC[C@H](NC(=O)N1CCOCC1)C(=O)N[C@@H]1C(=O)CO[C@H]1C` [CAP9-L-hLeu/drawing 71], the Ki (Mammalian Cathepsin S; [2]) is reported as 0.52 µM, the Ki (Mammalian Cathepsin L; [4]) is reported as > 100000 nM and the Ki (Mammalian Cathepsin K; [7]) is reported as > 100000 nM.

A Ki (Mammalian Cathepsin S; [2]) of 0.58 µM, a Ki (Mammalian Cathepsin L; [4]) of 30400 nM and a Ki (Mammalian Cathepsin K; [7]) of 4200 nM were found for `C[C@H]1OCC(=O)[C@H]1NC(=O)[C@H](CC(C)(C)C)NC(=O)N1CCOCC1` [CAP9-L-tBu-Ala/drawing 69] in this work.

A Ki (Mammalian Cathepsin S; [2]) of 1.3 µM, a Ki (Mammalian Cathepsin L; [4]) of 710 nM and a Ki (Mammalian Cathepsin K; [7]) of 3000 nM were found for `CCn1nc(C)cc1C(=O)N[C@@H](CC(C)C)C(=O)N[C@@H]1C(=O)CO[C@@H]1C` [CAP10-L-Leu/drawing 69] in this work.

For `CCn1nc(C)cc1C(=O)N[C@@H](Cc1ccc(O)cc1)C(=O)N[C@H]1C(=O)CO[C@H]1C` [CAP10-L-Tyr/drawing 70], the Ki (Mammalian Cathepsin S; [2]) was 0.34 µM, the Ki (Mammalian Cathepsin L; [4]) was 460 nM and the Ki (Mammalian Cathepsin K; [7]) was > 100000 nM.

With `CCn1nc(C)cc1C(=O)N[C@@H](Cc1ccc(O)cc1)C(=O)N[C@@H]1C(=O)CO[C@H]1C` [CAP10-L-Tyr/drawing 71] the Ki (Mammalian Cathepsin S; [2]) was 4.1 µM, the Ki (Mammalian Cathepsin L; [4]) was 450 nM and the Ki (Mammalian Cathepsin K; [7]) was > 100000 nM.

With `CCn1nc(C)cc1C(=O)NC(Cc1ccc(O)cc1)C(=O)NC1COCC1=O` [CAP10-L-Tyr/drawing 72] the Ki (Mammalian Cathepsin S; [2]) was 3.7 µM, the Ki (Mammalian Cathepsin L; [4]) was 100 nM and the Ki (Mammalian Cathepsin K; [7]) was > 100000 nM.

For `CCn1nc(C)cc1C(=O)N[C@@H](Cc1ccc(O)cc1)C(=O)N[C@@H]1COCC1=O` [CAP10-L-Tyr/drawing 73], the Ki (Mammalian Cathepsin S; [2]) was 3.7 µM, the Ki (Mammalian Cathepsin L; [4]) was 100 nM and the Ki (Mammalian Cathepsin K; [7]) was > 100000 nM.

A Ki (Mammalian Cathepsin S; [2]) of 0.095 µM, a Ki (Mammalian Cathepsin S; [3]) of 0.095 µM and a Ki (Murine Cathepsin S; [5]) of 0.048 µM were found for `CC1OCC(=O)C1NC(=O)C(CC(C)(C)C)NC(=O)c1ccsc1` [CAP11-L-tBu-Ala/drawing 71] in this work. It also gave a Ki (Rat Cathepsin S; [6]) of 0.084 µM, a Ki (Mammalian Cathepsin L; [4]) of 55200 nM and a Ki (Mammalian Cathepsin K; [7]) of 1550 nM.

A Ki (Mammalian Cathepsin S; [3]) of 0.053 µM, a Ki (Murine Cathepsin S; [5]) of 0.039 µM and a Ki (Rat Cathepsin S; [6]) of 0.058 µM were found for `CC[C@@H]1OCC(=O)[C@H]1NC(=O)[C@H](CC(C)(C)C)NC(=O)c1ccoc1` [drawing 79/drawing 78 X = O] in this work.
